Read-outs that look alike come from different tables or passages of the source.

This note sets out measurements from paper PMC8587750, “Structural Optimization and Biological Activity of Pyrazole Derivatives: Virtual Computational Analysis, Recovery Assay and 3D Culture Model as Potential Predictive Tools of Effectiveness against Trypanosoma cruzi” (Molecules, 2021).

The subject of data set [1] is trypomastigote forms of T. cruzi. Put plainly: Phenotypic screening against T. cruzi trypomastigotes (Dm28c-Luc, luciferase viability, 24 h). To be noted: Trypanosoma cruzi, Dm28c-Luc, 24 h; for IC50: read-out: Trypanocidal Activity Trypomastigotes IC50. The data set is classed as cell-based, Trypanosoma cruzi. The source says: (§1) T. cruzi Dm28c clone genetically modified to express luciferase, kindly provided by Dr. Cristina Henriques from Oswaldo Cruz Institute–Fiocruz, was used in the drug assays. Trypomastigotes were harvested from T. cruzi-infected Vero cultures supernatants at 4th days post-infection (dpi) and used in the phenotypic screening assay. For intracellular amastigotes assays, Vero cells (2D and 3D cultures) were infected at a ratio of 10:1 parasites/host cells.
The phenotypic compound screening was performed using transgenic T. cruzi parasites expressing the firefly luciferase (Dm28c-Luc). Trypomastigotes (1 × 10^6 parasites/well) were treated for 24 h at 37 °C with the pyrazole derivatives and Bz (0.04–100 μM), followed by incubation with luciferin substrate (300 µg/mL) to determine parasite viability through luciferase activity. The concentration that reduces the number of viable parasites by 50% (IC50) or 90% (IC90) was calculated by linear regression. The luminescent signal was read on a Glomax-Multi Detection plate reader (Promega Corporation, Madison, WI, EUA)). At least three independent assays were performed in duplicate.

For data set [2], the system named is intracellular amastigotes of T. cruzi. Put plainly: Activity against intracellular amastigotes in infected Vero cells (Dm28c-Luc, 72 h). The data set is classed as cell-based, Trypanosoma cruzi. To be noted: for Intracellular Amastigotes SI: CC50 of Vero cells/IC50 of intracellular amastigote; for IC50 / IC90: Trypanosoma cruzi; for IC50: Vero; for IC90: read-out: Trypanocidal Activity Intracellular Amastigotes IC90.
Description: as §1
The effect of the pyrazole derivatives against intracellular amastigotes was also evaluated after 72 h treatment (37 °C) with compound concentrations ranging from 0.04–100 µM [13]. Parasite viability, measured by luminescent signal, was determined after luciferin (300 µg/mL) addition. IC50 and IC90 values were calculated by linear regression. Selectivity index (SI) was calculated as the ratio of the CC50 to IC50 values. The non-toxic concentration of DMSO (less than 1% v/v) was used in all assays. A minimum of three independent assays was carried out in duplicate.

A short description of data set [3]: Cytotoxicity in vitro assay (ATP, CellTiter Glo, 72 h). The data set is classed as cell-based. Particulars: African green monkey, Vero cells. The procedure: Vero cells, obtained from the Rio de Janeiro Cell Bank (BCRJ code 0245), were cultured in RPMI-1640 supplemented with 10% fetal bovine serum (FBS) and 1 mM L-glutamine, as previously described. Vero cells were used for drug screening assays and to obtain trypomastigote forms of T. cruzi.
Vero cells were used as a cellular model to analyze the toxic effect of pyrazole derivatives, series 1(a–l), 2(a–l), 3(a–n), 4(a–c), and 5(a–c), and Benznidazole (Bz) on mammalian cells. Briefly, the cells, plated on 96-well white opaque microplate (1.5 × 10^4 cells/well), were treated for 72 h at 37 °C with a wide range concentration (500–1.95 µM) of the pyrazole derivatives. The cell viability was determined by measuring ATP levels using the CellTiter Glo Kit (Promega Corporation, Madison, WI, EUA) followed by reading the luminescent signal on the Glomax-Multi Detection plate reader (Promega Corporation, Madison, WI, EUA)). All treatments and controls were performed at a low concentration of DMSO (≤1%). The 50% cytotoxic concentration values (CC50; the concentration of the compound that reduces 50% of the cell viability) were estimated by linear regression analysis. Three independent assays were performed in duplicate.

The mark [4] stands for this setting: 72 h, Vero cells infected with Dm28c-Luc, 72 h, read-out: Trypanocidal Activity Intracellular Amastigotes IC50.
Where [5] appears, read: negative log of the IC50 value in molar, read-out: Intracellular Amastigotes pIC50 (converted).
The mark [6] stands for this setting: Vero cells infected with Dm28c-Luc, 72 h.

As usually defined, the IC90 is the concentration needed for an effect of 90%. Broadly, the CC50 is the concentration at which the toxic effect on the cells reaches its halfway point. The low end stands for greater toxicity to the cells, the high end for lower toxicity to the cells. For orientation: melting point means the temperature of the solid-liquid transition. Consider `CC1CN=C(c2cnn(-c3cc(Cl)cc(Cl)c3)c2N)N1` (stereo not drawn) [Compound 5b, 5-amino-1-(3,5-dichlorophenyl)-4-(4-(5)-methyl-4,5-dihydro-1H-imidazol-2-yl)-1H-pyrazole], for which the melting point fell in the range of 189 to 192 °C. Further, in data set [1], the IC50 is > 100 µM. Moreover, the IC90 in data set [1] (read-out: Trypanocidal Activity Trypomastigotes IC90) was > 100 µM. Further, the “Intracellular Amastigotes SI” value in data set [2] is reported as >15.17. The IC50 in data set [2] (setting [4]) came to 33 ± 8.84 µM. Moreover, the IC50 in data set [2] (setting [5]) is 33.1 µM. In addition, in data set [2] (setting [6]), the IC90 was > 100 µM. In addition, the CC50 at 72 h in data set [3] is > 500 µM.
Regarding `Brc1cccc(-n2cc(C3=NCCN3)cn2)c1` [Compound 3k, 1-(3-bromophenyl)-4-(4,5-dihydro-1H-imidazol-2-yl)-1H-pyrazole], the melting point was in the range of 116 to 120 °C. The IC50 in data set [1] was > 100 µM. Moreover, the “fold drop in activity on moving Cl or Br to the meta position” value in data set [2] (3b compared to 3g, 3k compared to 3j) was determined as 10 fold. Further, the “Intracellular Amastigotes SI” value in data set [2] was found to be 7.84. Besides, the IC50 in data set [2] (setting [4]) was 26.9 ± 2.19 µM. Besides, in data set [2] (setting [5]), the IC50 was 26.9 µM. Besides, in data set [2] (setting [6]), the IC90 was determined as 72.9 ± 3.67 µM. The compound further had a CC50 at 72 h in data set [3] of 211 ± 31.7 µM.
As for `COc1ccc(-n2cc(C(N)=O)cn2)cc1` [Compound 1k, 1-(4-methoxyphenyl)-1H-pyrazole-4-carboxamide], the melting point lay in the range of 220 to 222 °C. Besides, the IC50 in data set [2] (setting [5]) is > 50.1 µM.
In the same order, the values of `NC(=O)c1cnn(-c2ccc(Cl)c(Cl)c2)c1N` [Compound 2e, 5-amino-1-(3,4-dichlorophenyl)-1H-pyrazole-4-carboxamide] are 204 to 212 °C and > 70.8 µM.
Taken in the same sequence, the figures for `NC(=O)c1cnn(-c2ccc(Cl)c(Cl)c2)c1` [Compound 1e, 1-(3,4-dichlorophenyl)-1H-pyrazole-4-carboxamide] were 190 to 192 °C and > 50.1 µM.
In the same order, the values of `NC(=O)c1cnn(-c2ccccc2)c1` [Compound 1a, 1-phenyl-1H-pyrazole-4-carboxamide] are 224 to 225 °C and > 50.1 µM.
In turn, `NC(=O)c1cnn(-c2cc(Cl)cc(Cl)c2)c1N` [Compound 2d, 5-amino-1-(3,5-dichlorophenyl)-1H-pyrazole-4-carboxamide] had a melting point of 184 to 186 °C. Further, the IC50 in data set [2] (setting [5]) was > 70.8 µM.
`NC(=O)c1cnn(-c2ccc(F)cc2)c1N` [Compound 2g, 5-amino-1-(4-fluorophenyl)-1H-pyrazole-4-carboxamide]: the melting point lay within 232 to 234 °C. For the same compound, the IC50 in data set [2] (setting [5]) was > 70.8 µM.
Compound `COc1ccc(-n2cc(C3=NCCN3)cn2)cc1` [Compound 3l, 4-(4,5-dihydro-1H-imidazol-2-yl)-1-(4-methoxyphenyl)-1H-pyrazole] showed a melting point of 196 to 197 °C. The IC50 in data set [1] was > 100 µM. Also, in data set [2], the “Intracellular Amastigotes SI” value is >7. Besides, in data set [2] (setting [4]), the IC50 was found to be 71.8 ± 2.71 µM. For the same compound, in data set [2] (setting [5]), the IC50 was 72.4 µM. Also, the IC90 in data set [2] (setting [6]) is > 100 µM. Moreover, the CC50 at 72 h in data set [3] is > 500 µM.
The compound `Fc1ccc(-n2cc(C3=NCCN3)cn2)cc1` [Compound 3h, 4-(4,5-dihydro-1H-imidazol-2-yl)-1-(4-fluorophenyl)-1H-pyrazole] came in with a melting point of 210 to 212 °C. The IC50 in data set [1] is > 100 µM. Moreover, the IC50 in data set [2] (setting [4]) was 64.5 ± 3.81 µM. The IC50 in data set [2] (setting [5]) was 64.6 µM. Also, the IC90 in data set [2] (setting [6]) is > 100 µM. Besides, the CC50 at 72 h in data set [3] was > 500 µM.
Consider `NC(=O)c1cnn(-c2ccc(Cl)cc2Cl)c1` [Compound 1c, 1-(2,4-dichlorophenyl)-1H-pyrazole-4-carboxamide], for which the melting point was 184 to 186 °C. Also, in data set [2] (setting [5]), the IC50 was > 50.1 µM.
Taken in the same sequence, the figures for `COc1ccc(-n2ncc(C(N)=O)c2N)cc1` [Compound 2k, 5-amino-1-(4-methoxyphenyl)-1H-pyrazole-4-carboxamide] were 214 to 218 °C and > 70.8 µM.
In the same order, the values of `NC(=O)c1cnn(-c2ccc(Br)cc2)c1N` [Compound 2i, 5-amino-1-(4-bromophenyl)-1H-pyrazole-4-carboxamide] are 138 to 142 °C and > 70.8 µM.
In the same order, the values of `NC(=O)c1cnn(-c2ccc(Cl)cc2)c1` [Compound 1f, 1-(4-chlorophenyl)-1H-pyrazole-4-carboxamide] are 234 to 236 °C and > 50.1 µM.
On to `NC(=O)c1cnn(-c2cccc(Cl)c2)c1` [Compound 1b, 1-(3-chlorophenyl)-1H-pyrazole-4-carboxamide], for which the melting point lay within 202 to 204 °C. In data set [2] (setting [5]), the IC50 is > 50.1 µM.
Taken in the same sequence, the figures for `NC(=O)c1cnn(-c2cccc(Cl)c2)c1N` [Compound 2b, 5-amino-1-(3-chlorophenyl)-1H-pyrazole-4-carboxamide] were 168 to 170 °C and > 70.8 µM.
Taken in the same sequence, the figures for `NC(=O)c1cnn(-c2cccc(Br)c2)c1N` [Compound 2j, 5-amino-1-(3-bromophenyl)-1H-pyrazole-4-carboxamide] were 138 to 142 °C and > 70.8 µM.
In the same order, the values of `NC(=O)c1cnn(-c2cccc(Br)c2)c1` [Compound 1j, 1-(3-bromophenyl)-1H-pyrazole-4-carboxamide] are 212 to 214 °C and > 50.1 µM.
Turning to `NC(=O)c1cnn(-c2cccc(F)c2)c1N` [Compound 2h, 5-amino-1-(3-fluorophenyl)-1H-pyrazole-4-carboxamide], the melting point is 178 to 182 °C. Also, in data set [2] (setting [5]), the IC50 was > 70.8 µM.
Taken in the same sequence, the figures for `NC(=O)c1cnn(-c2cccc(F)c2)c1` [Compound 1h, 1-(3-fluorophenyl)-1H-pyrazole-4-carboxamide] were 206 to 208 °C and > 50.1 µM.
In the same order, the values of `NC(=O)c1cnn(-c2ccc(F)cc2)c1` [Compound 1g, 1-(4-fluorophenyl)-1H-pyrazole-4-carboxamide] are 244 to 246 °C and > 50.1 µM.
In the same order, the values of `NC(=O)c1cnn(-c2ccc(Cl)cc2)c1N` [Compound 2f, 5-amino-1-(4-chlorophenyl)-1H-pyrazole-4-carboxamide] are 196 to 200 °C and > 70.8 µM.
Turning to `NC(=O)c1cnn(-c2ccc(Cl)cc2Cl)c1N` [Compound 2c, 5-amino-1-(2,4-dichlorophenyl)-1H-pyrazole-4-carboxamide], the melting point lay within 212 to 214 °C. The IC50 in data set [2] (setting [5]) was > 70.8 µM.
The compound `NC(=O)c1cnn(-c2ccc(Br)cc2)c1` [Compound 1i, 1-(4-bromophenyl)-1H-pyrazole-4-carboxamide] yielded a melting point of 242 to 244 °C. Also, the IC50 in data set [2] (setting [5]) is > 50.1 µM.
Taken in the same sequence, the figures for `NC(=O)c1cnn(-c2cccc(Cl)c2Cl)c1` [Compound 1l, 1-(2,3-dichlorophenyl)-1H-pyrazole-4-carboxamide] were 220 to 224 °C and > 50.1 µM.
`NC(=O)c1cnn(-c2cccc(Cl)c2Cl)c1N` [Compound 2l, 5-amino-1-(2,3-dichlorophenyl)-1H-pyrazole-4-carboxamide]: the melting point lay in the range of 160 to 164 °C. For the same compound, the IC50 in data set [2] (setting [5]) is > 70.8 µM.
In the same order, the values of `NC(=O)c1cnn(-c2cc(Cl)cc(Cl)c2)c1` [Compound 1d, 1-(3,5-dichlorophenyl)-1H-pyrazole-4-carboxamide] are 240 to 242 °C and > 50.1 µM.
